From ChEMBL document CHEMBL4376815, “The Development Process for Discovery and Clinical Advancement of Modern Antimalarials” (J Med Chem, 2019)
pEC50: −log10 of the molar value.

What was measured:
Plasmodium falciparum [1] = assay: Antimalarial activity against Plasmodium falciparum asexual blood stage form infected in human assessed as parasite clearance half-life at 10 mg, po after 8 days; assay type: functional, organism-based
[2] = Drug level in human Plasma treated with [14C]-KAE609 assessed metabolite formation; assay type: ADME, cell-free
[3] = Half life in human; assay type: ADME
[4] = Drug recovery in feces of po dosed human by LC-MS/MS analysis; assay type: ADME, organism-based; conditions: faeces, read-out: Drug recovery
[5] = Half life in Wistar Hannover rat at 10 mg/kg, po by LC-MS/MS analysis; assay type: ADME, organism-based; conditions: in vivo
[6] = Half life in human infected with Plasmodium falciparum at 400 mg administered for 3 consecutive days and measured up to 192 hrs; assay type: ADME; conditions: in vivo
[7] = Cardiotoxicity in human assessed as effect on QT parameters at 800 mg in presence of PPQ; assay type: toxicity; conditions: in vivo
[8] = Oral bioavailability in Wistar Hannover rat at 10 mg/kg by LC-MS/MS analysis; assay type: ADME, organism-based; conditions: in vivo
Plasmodium falciparum [9] = assay: Antimalarial activity against Plasmodium falciparum assessed as reduction in parasite growth after 72 hrs by SYBR-green based fluorescence assay; assay type: functional, organism-based
Plasmodium falciparum [10] = assay: Antimalarial activity against Plasmodium falciparum infected in human assessed as median parasite clearance time at 800 […], po and measured on day 5; assay type: functional
[11] = Half life in Wistar Hannover rat at 3 mg/kg, iv by LC-MS/MS analysis; assay type: ADME, organism-based; conditions: in vivo
[12] = Volume of distribution at steady state in Wistar Hannover rat at 3 mg/kg, iv by LC-MS/MS analysis; assay type: ADME, organism-based; conditions: in vivo, read-out: Vdss
[13] = Volume of distribution in human at 10 to 1200 mg and measured up to 360 hrs by LC-MS/MS method; assay type: ADME; conditions: in vivo
[14] = Cmax in Wistar Hannover rat at 10 mg/kg, po by LC-MS/MS analysis; assay type: ADME, organism-based; design: dose 10 mg/kg, route oral; conditions: in vivo
[15] = Half life in human at 10 to 1200 mg and measured up to 360 hrs by LC-MS/MS method; assay type: ADME; conditions: in vivo
Plasmodium vivax [16] = assay: Antimalarial activity against Plasmodium vivax infected in human assessed as median parasite clearance time at 800 […], po and measured on day 5; assay type: functional
Plasmodium vivax [17] = assay: Antimalarial activity against Plasmodium vivax infected in human assessed as median parasite clearance time at 400 […], po administered for 3 consecutive day and measured on day 5; assay type: functional
[18] = Tmax in Wistar Hannover rat at 10 mg/kg, po by LC-MS/MS analysis; assay type: ADME, organism-based; conditions: in vivo
[19] = Tmax in human at 10 to 1200 mg and measured up to 360 hrs by LC-MS/MS method; assay type: ADME; conditions: in vivo
[20] = Cmax in human at 10 to 1200 mg and measured up to 360 hrs by LC-MS/MS method; assay type: ADME; conditions: in vivo
[21] = Cardiotoxicity in human assessed as effect on QT parameters at 800 mg; assay type: toxicity
Plasmodium falciparum [22] = assay: Antimalarial activity against Plasmodium falciparum infected in human assessed as median parasite clearance time at 400 […], po administered for 3 consecutive day and measured on day 5; assay type: functional
[23] = Half life in human infected with Plasmodium vivax at 400 mg administered for 3 consecutive days and measured up to 192 hrs; assay type: ADME; conditions: in vivo
Plasmodium vivax [24] = assay: Antimalarial activity against Plasmodium vivax assessed as reduction in parasite growth after 72 hrs by SYBR-green based fluorescence assay; assay type: functional, organism-based
[25] = Apparent clearance in human at 10 to 1200 mg and measured up to 360 hrs by LC-MS/MS method; assay type: ADME; conditions: in vivo, read-out: CL(app)
[26] = Plasma clearance in Wistar Hannover rat at 3 mg/kg, iv by LC-MS/MS analysis; assay type: ADME, organism-based
[27] = Tmax in human at 25 to 1200 mg, po measured up to 480 hrs by HPLC-MS/MS analysis; assay type: ADME, organism-based; conditions: in vivo
Plasmodium falciparum [28] = assay: Antimalarial activity against Plasmodium falciparum 3D7; assay type: functional, organism-based
[29] = Half life in human at 25 to 1200 mg, po measured up to 480 hrs by HPLC-MS/MS analysis; assay type: ADME, organism-based; conditions: in vivo
[30] = AUC (0 to infinity) in human at 25 to 1200 mg, po measured up to 480 hrs by HPLC-MS/MS analysis; assay type: ADME, organism-based; conditions: in vivo

Structure (SMILES): O[C@@H](c1cc(C(F)(F)F)nc2c(C(F)(F)F)cccc12)[C@H]1CCCCN1
- T1/2 (Plasmodium falciparum [1]): 6.2 h

Structure (SMILES): C[C@H]1Cc2c([nH]c3cc(Cl)c(F)cc23)-c2c3cc(Cl)c(O)cc3nc(=O)n21
- Drug uptake [2]: 12%
- half-life [3]: 1500 min
- dose excreted [4]: 36%

Structure (SMILES): CC1(C)c2nc(-c3ccc(F)cc3)c(Nc3ccc(F)cc3)n2CCN1C(=O)CN [GANAPLACIDE]
- half-life [5]: 342 min
- half-life [6]: 2640 min
- Activity [7]: 58.3%
- bioavailability [8]: 48%
- pEC50 (Plasmodium falciparum [9]): 7.90
- Time (Plasmodium falciparum [10]): 49 h
- half-life [11]: 396 min
- Vd [12]: 29.5 L/kg
- Vd [13]: 1610 to 2410 L
- Cmax [14]: 139 ng/mL
- half-life [15]: 1.96 to 2.92 days
- Time (Plasmodium vivax [16]): 24 h
- Time (Plasmodium vivax [17]): 24 h
- Tmax [18]: 2 h
- Tmax [19]: 1 to 6 h
- Cmax [20]: 7.6 to 2720 ng/mL
- Activity [21]: 87.5%
- Time (Plasmodium falciparum [22]): 45 h
- half-life [23]: 2640 min
- pEC50 (Plasmodium vivax [24]): 8.26
- clearance [25]: 267 to 583 mL/min
- clearance [26]: 90 mL/min/kg

Structure (SMILES): C[C@H]1Cc2c([nH]c3cc(Cl)c(F)cc23)-c2c3cc(Cl)ccc3nc(=O)n21
- Drug uptake [2]: 8%

Structure (SMILES): CC(F)(F)c1nc2nc(CO)cc(Nc3ccc(S(F)(F)(F)(F)F)cc3)n2n1
- Tmax [27]: 95 to 143 h
- pEC50 (Plasmodium falciparum [28]): 5.74
- half-life [29]: 4.08 to 6.83 days
- AUC(0-inf) [30]: 167 to 1170 µg·h/mL
